Molecules are shown by their SMILES.

This experiment has as its target T1, NS3 protease (dengue virus type 1, UniProt A0A0K0TQ28).
T1 sequence (A0A0K0TQ28 whole entry): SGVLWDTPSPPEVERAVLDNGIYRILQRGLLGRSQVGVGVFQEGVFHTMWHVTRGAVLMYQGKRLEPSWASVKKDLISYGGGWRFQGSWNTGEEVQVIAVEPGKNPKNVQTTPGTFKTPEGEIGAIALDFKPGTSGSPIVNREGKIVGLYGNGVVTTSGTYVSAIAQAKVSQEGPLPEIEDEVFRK
In words: Functional biochemical assay to identify treatments for viral infectious disease that targets Dengue virus type 1 NS2B-NS3 protease. Utilizing a direct enzyme activity measurement method, reading the fluorescence intensity is used to characterize the relative potency of inhibitors as IC50. Further details: species or system Nauru/West Pac/1974.
Usually IC50 stands for the concentration at which inhibition is half-maximal. Read a low IC50 as higher potency. In the case of `NCCc1csc2cc(C(=O)Nc3cc([C@H]4CCOC4)ccn3)ccc12`, the IC50 is over 99.5 µM.
Consider `O=C(Nc1ccc2c(c1)CNC2)c1ccc2[nH]cc(C3CCNCC3)c2c1`, for which it took 31.2 µM to reach half-maximal inhibition (IC50).
The molecule `N#Cc1ccc(-c2nc3c(C(=O)Nc4ccc5c(c4)CNC5)cc(F)cc3[nH]2)cc1` gave an IC50 of 1.68 µM.
Under `COc1cccc(-c2nc3c(C(=O)Nc4ccc5c(c4)CNC5)cc(F)cc3[nH]2)c1` stands 5.41 µM.
Under `CC(C)c1nnc(-c2nc3c(C(=O)Nc4ccc5c(c4)CNC5)cc(F)cc3[nH]2)s1` stands 21.8 µM.
`NCc1cccc(-c2csc3cc(C(=O)Nc4ccc5c(c4)CNC5)ccc23)c1` displayed an IC50 of 29.9 µM.
The molecule `O=C(Nc1ccc2c(c1)CNC2)c1cc(F)cc2[nH]c(-c3cccc(F)c3)nc12` gave a half-inhibitory concentration (IC50) of 2.69 µM.
`Cc1cccc(-c2nc3c(C(=O)Nc4ccc5c(c4)CNC5)cc(F)cc3[nH]2)c1`: the IC50 was 5.92 µM.
Take `Cc1ccccc1-c1nc2c(C(=O)Nc3ccc4c(c3)CNC4)cc(F)cc2[nH]1`: the IC50 is 2.19 µM.
`O=C(Nc1ccc2c(c1)CNC2)c1ccc2c(C3=CCNCC3)csc2c1` returned an IC50 of 56.3 µM.
Consider `O=C(Nc1ccc2c(c1)CNC2)c1cc(F)cc2[nH]c(-c3ccccc3F)nc12`, for which half-maximal inhibition (IC50) was put at 3.86 µM.
`NCc1ccc(-c2csc3cc(C(=O)Nc4ccc5c(c4)CNC5)ccc23)cc1`: the midpoint of inhibition, the IC50, lay at 31.7 µM.
The molecule `NCc1csc2cc(C(=O)Nc3ccc4c(c3)CNC4)ccc12` returned a concentration for half-maximal inhibition (IC50) of 9.99 µM.
For `O=C(Nc1ccc2c(c1)CNC2)c1cccc2c(C3CNC3)n[nH]c12`, the IC50 stood at 92.9 µM.
In the case of `COc1cc(-c2cc(NC(=O)c3cc(F)cc4[nH]ncc34)cc3c2CNC3)ccn1`, the IC50 worked out at 82.8 µM.
Molecule `CC(C)(c1nc2c(C(=O)Nc3ccc4c(c3)CNC4)cc(F)cc2[nH]1)S(C)(=O)=O` displayed an IC50 of 16.1 µM.
Molecule `NCCc1csc2cc(C(=O)Nc3ccc4c(c3)CNC4)ccc12` returned a half-inhibitory concentration (IC50) of over 99.5 µM.
`O=C(Nc1cc2c(c(C3=CCS(=O)(=O)CC3)c1)CNC2)c1cc(F)cc2[nH]ncc12`: the concentration for half-maximal inhibition (IC50) was over 99.5 µM.
The same measure for `O=C(Nc1cc2c(c(C3=CCOCC3)c1)CNC2)c1cc(F)cc2[nH]ncc12`: 39.9 µM.

The values above are taken from ChEMBL document CHEMBL5604064, “ASAP - DENV-1 NS2B-NS3 protease fluorescence dose response” (2024).
